Experimental data: PubChem BioAssay (NCI)
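Cultured in 96-well plates, cells were exposed to test compound for 48 hours across five concentrations. Definition used: TGI = concentration required for complete inhibition of growth.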

Experiments:
Experiment in all cases: NCI-60 cell line screen, 48 h
786-0 renal = test system: 786-0 renal
A498 renal = test system: A498 renal
A549 NSCLC = test system: A549 NSCLC
ACHN renal = test system: ACHN renal
BT-549 breast = test system: BT-549 breast
CAKI-1 renal = test system: CAKI-1 renal
CCRF-CEM leukemia = test system: CCRF-CEM leukemia
COLO 205 colon = test system: COLO 205 colon
EKVX NSCLC = test system: EKVX NSCLC
HCC-2998 colon = test system: HCC-2998 colon
HCT-116 colon = test system: HCT-116 colon
HCT-15 colon = test system: HCT-15 colon
HL-60(TB) leukemia = test system: HL-60(TB) leukemia
HOP-62 NSCLC = test system: HOP-62 NSCLC
HOP-92 NSCLC = test system: HOP-92 NSCLC
HS 578T breast = test system: HS 578T breast
HT29 colon = test system: HT29 colon
IGROV1 ovarian = test system: IGROV1 ovarian
K-562 leukemia = test system: K-562 leukemia
KM12 colon = test system: KM12 colon
LOX IMVI melanoma = test system: LOX IMVI melanoma
MALME-3M melanoma = test system: MALME-3M melanoma
MCF7 breast = test system: MCF7 breast
MDA-MB-435 = test system: MDA-MB-435
MOLT-4 leukemia = test system: MOLT-4 leukemia
NCI-H226 lung = test system: NCI-H226 lung
NCI-H23 lung = test system: NCI-H23 lung
NCI-H460 lung = test system: NCI-H460 lung
NCI-H522 lung = test system: NCI-H522 lung
NCI/ADR-RES ovarian = test system: NCI/ADR-RES ovarian
OVCAR-3 ovarian = test system: OVCAR-3 ovarian
OVCAR-4 ovarian = test system: OVCAR-4 ovarian
OVCAR-5 ovarian = test system: OVCAR-5 ovarian
OVCAR-8 ovarian = test system: OVCAR-8 ovarian
PC-3 prostate = test system: PC-3 prostate
RPMI-8226 leukemia = test system: RPMI-8226 leukemia
RXF 393 renal = test system: RXF 393 renal
SF-268 CNS = test system: SF-268 CNS
SF-295 CNS = test system: SF-295 CNS
SF-539 CNS = test system: SF-539 CNS
SK-MEL-2 melanoma = test system: SK-MEL-2 melanoma
SK-MEL-28 melanoma = test system: SK-MEL-28 melanoma
SK-MEL-5 melanoma = test system: SK-MEL-5 melanoma
SK-OV-3 ovarian = test system: SK-OV-3 ovarian
SNB-19 CNS = test system: SNB-19 CNS
SNB-75 CNS = test system: SNB-75 CNS
SR leukemia = test system: SR leukemia
SW-620 colon = test system: SW-620 colon
T-47D breast = test system: T-47D breast
TK-10 renal = test system: TK-10 renal
U251 CNS = test system: U251 CNS
UACC-257 melanoma = test system: UACC-257 melanoma
UACC-62 melanoma = test system: UACC-62 melanoma
UO-31 renal = test system: UO-31 renal

Question: What does the source list for `O=C(NNC1=NCCCCN1)Nc1ccc(Cl)cc1`?
Answer: TGI (786-0 renal): > 100 µM; TGI (A498 renal): > 100 µM; TGI (A549 NSCLC): > 100 µM; TGI (ACHN renal): > 100 µM; TGI (BT-549 breast): > 100 µM; TGI (CAKI-1 renal): > 100 µM; TGI (CCRF-CEM leukemia): > 100 µM; TGI (COLO 205 colon): > 100 µM; TGI (EKVX NSCLC): > 100 µM; TGI (HCC-2998 colon): > 100 µM; TGI (HCT-116 colon): > 100 µM; TGI (HCT-15 colon): > 100 µM; TGI (HL-60(TB) leukemia): > 100 µM; TGI (HOP-62 NSCLC): > 100 µM; TGI (HOP-92 NSCLC): > 100 µM; TGI (HS 578T breast): > 100 µM; TGI (HT29 colon): > 100 µM; TGI (IGROV1 ovarian): > 100 µM; TGI (K-562 leukemia): > 100 µM; TGI (KM12 colon): > 100 µM; TGI (LOX IMVI melanoma): > 100 µM; TGI (MALME-3M melanoma): > 100 µM; TGI (MCF7 breast): > 100 µM; TGI (MDA-MB-435): > 100 µM; TGI (MOLT-4 leukemia): 72.4 µM; TGI (NCI-H226 lung): > 100 µM; TGI (NCI-H23 lung): > 100 µM; TGI (NCI-H460 lung): > 100 µM; TGI (NCI-H522 lung): > 100 µM; TGI (NCI/ADR-RES ovarian): > 100 µM; TGI (OVCAR-3 ovarian): > 100 µM; TGI (OVCAR-4 ovarian): > 100 µM; TGI (OVCAR-5 ovarian): > 100 µM; TGI (OVCAR-8 ovarian): > 100 µM; TGI (PC-3 prostate): > 100 µM; TGI (RPMI-8226 leukemia): > 100 µM; TGI (RXF 393 renal): > 100 µM; TGI (SF-268 CNS): > 100 µM; TGI (SF-295 CNS): > 100 µM; TGI (SF-539 CNS): > 100 µM; TGI (SK-MEL-2 melanoma): > 100 µM; TGI (SK-MEL-28 melanoma): > 100 µM; TGI (SK-MEL-5 melanoma): > 100 µM; TGI (SK-OV-3 ovarian): > 100 µM; TGI (SNB-19 CNS): > 100 µM; TGI (SNB-75 CNS): > 100 µM; TGI (SR leukemia): > 100 µM; TGI (SW-620 colon): > 100 µM; TGI (T-47D breast): > 100 µM; TGI (TK-10 renal): > 100 µM; TGI (U251 CNS): > 100 µM; TGI (UACC-257 melanoma): > 100 µM; TGI (UACC-62 melanoma): > 100 µM; TGI (UO-31 renal): > 100 µM
